Common to all, as to format: cell-based, human
In assay [1] the test system is Cama-1, SW527, BT483 and MCF-7. As to the kind of experiment: Cell recovery by crystal violet staining, four breast tumor cell lines together. The conditions noted are these: 72 h, 5 μg/ml PGN; for effect on cell recovery of any of the four breast cancer cell lines: 10 μg/ml LPS, 50 ng/ml flagellin, 6 μg/ml R848, 10 μg/ml CpG ODNs; for cell recovery, percent of control, on average: 50 μg/ml Poly IC or 10 μg/ml LPS, average of the four cell lines. On the procedure:
(§1) Cell recovery after treatment with TLR ligands was measured by crystal violet staining (Sigma-Aldrich). Cells were plated at 10^4 cells/well in 96 well plates. After 72 hours of culture either with or without TLR ligand, the cells were washed with PBS, fixed in 6% formaldehyde (Sigma-Aldrich) for 20 minutes, washed twice, and then stained with 0.1% crystal violet for 10 minutes. After washes and incubation in 1% SDS for 1 hour, the absorbance was read at 605 nm on a Vmax plate reader (Molecular Devices, Sunnyvale, Calif.). Annexin V staining was performed with an annexin-FITC apoptosis detection kit (BD Pharmingen, San Diego, Calif.) according to the manufacturer's instructions. Sub-diploid cells were detected by staining with 3 μg/mL propidium iodide (PI) (Molecular probes, Eugene, Oreg.), after overnight permeabilization in 70% ethanol. Fluorescence was analyzed by flow cytometry on a FACScalibur (Becton Dickinson, Mountain View, Calif.) equipped with a doublet-discrimination module and using Celiquest Pro software (Becton Dickinson).
Four human breast tumor cell lines, Cama-1, SW527, BT483 and MCF-7, were analyzed for cell death in response to Poly IC. Cells were cultured for 72 hours with 5 μg/ml PGN, 50 μg/ml Poly IC or 10 μg/ml LPS. Control cells were cultured with PBS. Cytotoxicity was assessed by crystal violet staining and expressed as a percent of control.
Furthermore, additional TLR ligands were tested to determine any possible effects on cellular toxicity. The ligands tested were PGN, LPS, Flagellin, R848 and CpG. Cells were cultured for 72 hours with 5 μg/ml PGN, 10 μg/ml LPS, 50 ng/ml flagellin, 6 μg/ml R848, 10 μg/ml CpG ODNs, or with PBS as control. Cell recovery was assessed by crystal violet staining and expressed as a percent of control.

In another assay the test system is TLR3 mRNA. As to the kind of experiment: TLR3 mRNA expression by RT-PCR in Cama-1 cells. The conditions noted are these: 48 h, 5 μg/ml, agent alone. The protocol:
Cama-1 cells were analyzed for TLR3 mRNA expression in response to Poly IC. Cama-1 cells were cultured in complete medium (DMEM F12 containing […] glucose and complemented with 2 mM L-glutamine, 10% fetal calf serum, 160 μg/mL gentalline, 2.5 mg/mL sodium bicarbonate) for 48 hours either alone or with LPS (5 μg/ml) and/or with Poly IC (5 μg/ml). The mRNA from each group of cells was extracted. The mRNA was then reverse-transcribed and PCR amplified for 35 cycles (as above in Example 1) with hTLR3 specific primers: TLR3F: […] (SEQ ID NO: 5) and TLR3R: […] (SEQ ID NO: 6). TLR3 mRNA could not be amplified from resting Cama-1 cells.
Amplified DNA from RT-PCR using hTLR3 specific primers was run on a gel.

For a further assay, the system named is Cama-1 cells. As to the kind of experiment: Apoptosis by annexin V staining and flow cytometry. The conditions noted are these: Cama-1; for effect on Poly IC induced apoptosis: 5 μg/ml Poly IC; for percentage of apoptotic cells: 5 μg/ml Poly IC or 25 ng/ml TNF-α. On the procedure:
as §1
Cama-1 cells were plated in 6 well plates at 3×10^5 cells per well. After overnight adherence, siRNA transfections were performed for 5 hours in OptiMEM medium (Life technologies) containing 3 μg/mL lipofectamine 2000 (Invivogen) and 100 nM siRNA. Cells were then washed and cultured for 72 hours in complete medium before treatment with Poly IC and apoptosis analysis. siRNA duplexes specific for TLR3, PKR, IRAK-4, TRAF6 and p65 were purchased from Dharmacon (Lafayette, Colo.) as SMART-Pools. TRIF siRNA was purchased from the same supplier as single oligoduplexes (5′-GCUCUUGUAUCUGMGCAC-3′) (SEQ ID NO: 23). TLR3 and TRIF expression was assessed by PCR (35 cycles: 1 min 94° C., 1 min 55° C., 2 min 72° C.) with Taq PCR ReadyMix (Sigma-Aldrich) using following primers: […]
To further investigate the effect of Poly IC treatment on breast tumor cell lines, cell death was analyzed in Cama-1 cells by annexin V staining. Cells were cultured for 24 hours either with or without 5 μg/ml of Poly IC. Apoptosis was measured by annexin V staining and flow cytometry.
We also tried to determine the kinetics of Poly IC induced apoptosis. Cama-1 cells were cultured either with or without 5 μg/ml or 50 ng/ml of Poly IC. The percentage of apoptotic (annexin positive) cells in the culture were measured during the following 30 hours. […] Specifically, Poly IC triggered apoptosis in Cama-1 cells beginning 9 hours after Poly IC addition and reaching up to 80% apoptotic cells after 30 hours of treatment.
Poly AU was analyzed for its effects on apoptosis. Cama-1 cells were cultured for 48 hours either with PBS or with increasing concentrations of Poly AU ranging from 5 ng/ml to 50 μg/ml. Apoptosis was analyzed by measuring the percentage of annexin V positive cells.
In order to determine the pathway of Poly IC induced Cama-1 cell toxicity, RNA interference was used to efficiently downregulate expression of TRIF and PKR. Cama-1 cells were plated in 6 well plates at 3×10^5 cells per well. After overnight adherence, siRNA transfections were performed for 5 hours in OptiMEM medium (Life technologies) containing 3 μg/mL lipofectamine 2000 (Invivogen) and 100 nM siRNA. Cells were transfected with either MOCK (water), control scrambled duplex (scr) siRNA, TRIF siRNA or PKR siRNA.
72 hours after siRNA transfection, Cama-1 cells were cultured for another 24 hours either with or without 5 μg/ml Poly IC. Apoptosis was measured by annexin V staining and expressed as a percentage of apoptotic cells in culture. On average, 10% of control cells (MOCK and scr) that were untreated underwent apoptosis. In contrast, about 75% of control cells (MOCK and scr) that were treated with Poly IC underwent apoptosis.
To further investigate TLR3 mediated cytotoxicity, the involvement of the signaling molecules IRAK4 and TRAF6, both downstream mediators of TLR signaling, were assessed. Cama-1 cells were plated in 6 well plates at 3×10^5 cells per well. […]

In the next assay the test system is IL-8. As to the kind of experiment: IL-8 secretion by breast cancer cell lines. The conditions noted are these: certain cell lines.

Residues, ends and D or L forms follow the SMILES beside them. *: point of attachment. Cbz = O=C(OCc1ccccc1)*; CH2F = FC*

On to `CCOCc1nc2c(N)nc3ccccc3c2n1CC(C)(C)O` [R848], for which the “effect on cell recovery of any of the four breast cancer cell lines” value (“effect on cell recovery” below) in assay [1] is listed as “None of those ligands significantly reduced cell recovery”.

Regarding lipopolysaccharide [LPS], in assay [1], the “effect on cell recovery” value is given as “None of those ligands significantly reduced cell recovery” and the “cell recovery, percent of control, on average” value is 95%. The “TLR3 mRNA expression” value in the assay on TLR3 mRNA is recorded as “did not affect TLR3 mRNA expression”.

As for `C[C@@H]1C[C@@H]([C@H](O)CC2CC(=O)NC(=O)C2)C(=O)[C@@H](C)C1` [CHX, Cycloheximide], the “effect on TNF-α induced apoptosis” value in the assay on Cama-1 cells (25 ng/ml TNF-α, annexin V) is listed as “significantly sensitized Cama-1 cells to TNF-α induced apoptosis”. Moreover, the “effect on Poly IC induced apoptosis” value in the assay on Cama-1 cells (annexin V) was “partially protected the cells against Poly IC induced apoptosis”.

Take “polyadenylic-polyuridylic acid [Poly AU]”: in the assay with Cama-1 cells (48 h, 5 ng/ml to 50 μg/ml Poly AU), the “apoptosis (annexin V positive cells)” value is listed as “triggers apoptosis”.

For the compound Peptidoglycan [PGN], in assay [1], the “effect on cell recovery” value was “None of those ligands significantly reduced cell recovery” and the “cell recovery, percent of control, on average” value is on record as 95%. Moreover, in the assay on IL-8, the “secretion of IL-8” value was “induced secretion of IL-8 in certain cell lines”.

For the compound Flagellin, in assay [1], the “effect on cell recovery” value is “None of those ligands significantly reduced cell recovery”.

In the case of TNF-α, the “percentage of apoptotic cells” value with Cama-1 cells (25 μM z-VAD-fmk pre-incubation 1 h, 24 h) is 10%; with Cama-1 cells (DMSO pre-incubation 1 h, 24 h), 40%; in the assay with Cama-1 cells (absence of antibody (Example 12)), 40%; with Cama-1 cells (pre-incubated with 10 μg/ml CHX, untreated 15%) it was 70%; in the assay with Cama-1 cells (pre-incubated with 20 μg/ml neutralizing anti TNF-α mAb), 10%.

For the compound `COC(=O)C[C@H](NC(=O)[C@H](C)NC(=O)[C@@H](NC(=O)OCc1ccccc1)C(C)C)C(=O)CF` [z-VAD-fmk] (Cbz-Val-Ala-Asp(OMe)-CH2F), in the assay with Cama-1 cells (annexin V), the “effect on Poly IC induced apoptosis” value was “greatly reduced Poly IC induced apoptosis”.

(Values after US20060147456A1, “Induction of apoptosis in toll-like receptor expressing tumor cells” (priority 2004, published 2006).)
